Laboratory results reported in patent US20240415814A1, “PHARMACEUTICAL COMPOSITION COMPRISING 1-(3-CYANO-1-ISOPROPYL-INDOL-5-YL)PYRAZOLE-4-CARBOXYLIC ACID” (LG CHEM, LTD., priority 2021, published 2024).

Legend:
[1] = test system: serum uric acid; test: Pharmacodynamics (serum uric acid) according to renal function of patients; assay type: in vivo, human; settings: for AUEC0-24 of serum uric acid (baseline corrected), geometric LS mean / Cmean, 24 of serum uric acid (baseline corrected), geometric LS mean / Emax of serum uric acid (baseline corrected), geometric LS mean: 200 mg once daily, Day 7
Procedure: PK and PD of the compound of Example 1 were assessed under patient groups with various degrees of renal function. […] A total of 37 patients were classified into 4 groups as follows based on renal function according to eGFR which was calculated by MDRD formula: • Normal: eGFR≥90 mL/min/1.73 m^2, n=13 • Mild (mild renal function impairment): eGFR 60-less than 90 mL/min/1.73 m^2, n=8 • Moderate (moderate renal function impairment): eGFR 30-less than 60 mL/min/1.73 m^2, n=8 • Severe (severe renal function impairment): eGFR<30 mL/min/1.73 m^2 and not on hemodialysis, n=8
Blood and urine samples were collected before dosing and up to 24 or 48 hours after the final dosing for PK/PD assessment.
An analysis of variance (ANOVA) model was fitted to the log-transformed baseline corrected PD parameters, with renal function impairment group fitted as a fixed effect. Point estimates and 90% CIs for differences between the least square means on the log scale were exponentiated to express the results as ratios of geometric means and CIs on the original scale.

[2] = Phase 2 clinical trial: analysis of TEAEs; assay type: in vivo, human
Procedure: Selected patients gave written informed consent according to institutional and study procedures. After screening and wash-out processes (days 26 to 33 pre-dose), a total of 156 patients were finally enrolled, and each patient was randomly assigned to 5 groups of 50 mg, 100 mg and 200 mg dosing groups of the compound of Example 1, a placebo group, and a febuxostat group. Patients in each group self-administered 1 tablet of a combination drug (colchicine, 0.6 mg/day) for the prevention of gout flare along with the assigned investigational drug (50 mg, 100 mg and 200 mg doses of the compound of Example 1, placebo, and 40 mg of febuxostat group) orally, once every morning, at about the same time each day, with water, regardless of food.
When ULT is performed using a xanthine oxidase inhibitor compound, since there is a high possibility of gout flare as the tophi dissolves at the end of the bone during the initial treatment period, it was designed to be used in combination with colchicine for the purpose of inhibiting it. The drug was administered for 84 days by setting the first dosing day of the drug as day 1, and basic tests, serum uric acid concentration and the like were measured at clinic visits on 14 days (week 2), 28 days (week 4), 56 days (week 8), and 84 days (week 12) during the dosing period to determine whether TEAEs occurred. After the end of drug administration, a safety follow-up was performed for an additional 2 weeks (98 days, week 14).
Among all patient groups participating in the clinical trial, although the administration was stopped for 3 patients due to headache, gout flare in the left ankle, and liver dysfunction in the 100 mg dosing group of Example 1 and for 1 patient due to an increase in hepatic enzyme in the 200 mg dosing group, no significant treatment emergency adverse event (TEAE) was found in the remaining patient groups.

[3] = normal renal function (control)

**Q.** Which results are given for `CC(C)n1cc(C#N)c2cc(-n3cc(C(=O)O)cn3)ccc21` [Example 1, 1-(3-cyano-1-isopropyl-indol-5-yl)pyrazol-4-carboxylic acid]?
**A.** AUEC0-24, ratio of geometric LS means ([1]; Mild/Normal): 0.980; Cmean, 24, ratio of geometric LS means ([1]; Mild/Normal): 0.988; Emax, ratio of geometric LS means ([1]; Mild/Normal): 0.979; AUEC0-24, ratio of geometric LS means ([1]; Moderate/Normal): 1.02; Cmean, 24, ratio of geometric LS means ([1]; Moderate/Normal): 1.03; Emax, ratio of geometric LS means ([1]; Moderate/Normal): 1.02; AUEC0-24, ratio of geometric LS means ([1]; Severe/Normal): 1.05; Cmean, 24, ratio of geometric LS means ([1]; Severe/Normal): 1.03; Emax, ratio of geometric LS means ([1]; Severe/Normal): 0.911; GLSMRs for Cmean,24, Emax and AUEC0-24 of sUA ([1]; across all renal function impairment groups versus normal): approximately 1; AUEC0-24 of serum uric acid (baseline corrected), geometric LS mean ([1]; mild impairment): 111 mg·h/dL; Cmean, 24 of serum uric acid (baseline corrected), geometric LS mean ([1]; mild impairment): 4.53 mg/dL; Emax of serum uric acid (baseline corrected), geometric LS mean ([1]; mild impairment): 4.43 mg/dL; AUEC0-24 of serum uric acid (baseline corrected), geometric LS mean ([1]; moderate impairment): 115 mg·h/dL; Cmean, 24 of serum uric acid (baseline corrected), geometric LS mean ([1]; moderate impairment): 4.74 mg/dL; Emax of serum uric acid (baseline corrected), geometric LS mean ([1]; moderate impairment): 4.63 mg/dL; AUEC0-24 of serum uric acid (baseline corrected), geometric LS mean [1, 3]: 113 mg·h/dL; Cmean, 24 of serum uric acid (baseline corrected), geometric LS mean [1, 3]: 4.59 mg/dL; Emax of serum uric acid (baseline corrected), geometric LS mean [1, 3]: 4.52 mg/dL; AUEC0-24 of serum uric acid (baseline corrected), geometric LS mean ([1]; severe impairment): 119 mg·h/dL; Cmean, 24 of serum uric acid (baseline corrected), geometric LS mean ([1]; severe impairment): 4.72 mg/dL; Emax of serum uric acid (baseline corrected), geometric LS mean ([1]; severe impairment): 4.12 mg/dL; incidence of TEAEs ([2]; 50 mg, 100 mg and 200 mg groups versus placebo and febuxostat groups): showed no difference from the placebo group and the febuxostat group in the overall TEAE; patients for whom administration was stopped (headache, gout flare in the left ankle, liver dysfunction) ([2]; 100 mg dosing group): 3 patients; patients for whom administration was stopped (increase in hepatic enzyme) ([2]; 200 mg dosing group): 1 patient
